Experiments:
Experiment in all cases: NCI-60 one-dose screen
Assay type in all cases: cell-based
A549/ATCC = conditions: Homo sapiens, Non-small cell lung panel, single dose 10^−5 M, read-out: Growth inhibition %
SK-MEL-5 = conditions: Homo sapiens; SK-MEL-5, Melanoma panel; single dose 10^−5 M; read-out: Growth inhibition %
HOP-62 = conditions: Homo sapiens; HOP-62, Non-small cell lung panel; single dose 10^−5 M; read-out: Growth inhibition %
SW-620 = conditions: Homo sapiens; SW-620, Colon Cancer panel; single dose 10^−5 M; read-out: Growth inhibition %
HS 578T = conditions: Homo sapiens, Breast Cancer panel, single dose 10^−5 M, read-out: Growth inhibition %
HL-60(TB) = conditions: Homo sapiens, Leukemia panel, single dose 10^−5 M, read-out: Growth inhibition %
NCI-H322M = conditions: Homo sapiens, Non-small cell lung panel, single dose 10^−5 M, read-out: Growth inhibition %
OVCAR-4 = conditions: Homo sapiens; OVCAR-4, Ovarian Cancer panel; single dose 10^−5 M; read-out: Growth inhibition %
BT-549 = conditions: Homo sapiens; BT-549, Breast Cancer panel; single dose 10^−5 M; read-out: Growth inhibition %
PC-3 = conditions: Homo sapiens; PC-3, Prostate Cancer panel; single dose 10^−5 M; read-out: Growth inhibition %
MCF7 = conditions: Homo sapiens; MCF7, Breast Cancer panel; single dose 10^−5 M; read-out: Growth inhibition %
CAKI-1 = conditions: Homo sapiens; CAKI-1, Renal Cancer panel; single dose 10^−5 M; read-out: Growth inhibition %
SNB-75 = conditions: Homo sapiens; SNB-75, CNS Cancer panel; single dose 10^−5 M; read-out: Growth inhibition %
UACC-62 = conditions: Homo sapiens; UACC-62, Melanoma panel; single dose 10^−5 M; read-out: Growth inhibition %
MDA-MB-468 = conditions: Homo sapiens; MDA-MB-468, Breast Cancer panel; single dose 10^−5 M; read-out: Growth inhibition %
NCI/ADR-RES = conditions: Homo sapiens, Ovarian Cancer panel, single dose 10^−5 M, read-out: Growth inhibition %
COLO 205 = conditions: Homo sapiens; COLO 205, Colon Cancer panel; single dose 10^−5 M; read-out: Growth inhibition %
EKVX = conditions: Homo sapiens, Non-small cell lung panel, single dose 10^−5 M, read-out: Growth inhibition %
786-0 = conditions: Homo sapiens; 786-0, Renal Cancer panel; single dose 10^−5 M; read-out: Growth inhibition %
M14 = conditions: Homo sapiens; M14, Melanoma panel; single dose 10^−5 M; read-out: Growth inhibition %
UACC-257 = conditions: Homo sapiens; UACC-257, Melanoma panel; single dose 10^−5 M; read-out: Growth inhibition %
U251 = conditions: Homo sapiens, U-251; U251, CNS Cancer panel; single dose 10^−5 M; read-out: Growth inhibition %
NCI-H522 = conditions: Homo sapiens; NCI-H522, Non-small cell lung panel; single dose 10^−5 M; read-out: Growth inhibition %
HCT-116 = conditions: Homo sapiens, read-out: Growth inhibition %
HOP-92 = conditions: Homo sapiens; HOP-92, Non-small cell lung panel; single dose 10^−5 M; read-out: Growth inhibition %
T-47D = conditions: Homo sapiens, T47D, Breast Cancer panel, single dose 10^−5 M, read-out: Growth inhibition %
SK-MEL-2 = conditions: Homo sapiens; SK-MEL-2, Melanoma panel; single dose 10^−5 M; read-out: Growth inhibition %
NCI-H23 = conditions: Homo sapiens; NCI-H23, Non-small cell lung panel; single dose 10^−5 M; read-out: Growth inhibition %
MALME-3M = conditions: Homo sapiens, Melanoma panel, single dose 10^−5 M, read-out: Growth inhibition %
SF-295 = conditions: Homo sapiens; SF-295, CNS Cancer panel; single dose 10^−5 M; read-out: Growth inhibition %
ACHN = conditions: Homo sapiens, Renal Cancer panel, single dose 10^−5 M, read-out: Growth inhibition %
SN12C = conditions: Homo sapiens, Renal Cancer panel, single dose 10^−5 M, read-out: Growth inhibition %
HT29 = conditions: Homo sapiens, HT-29; HT29, Colon Cancer panel; single dose 10^−5 M; read-out: Growth inhibition %

Structure (SMILES) | inhibition at 10 µM (A549/ATCC) | inhibition at 10 µM (SK-MEL-5) | inhibition at 10 µM (HOP-62) | inhibition at 10 µM (SW-620) | inhibition at 10 µM (HS 578T) | inhibition at 10 µM (HL-60(TB)) | inhibition at 10 µM (NCI-H322M) | inhibition at 10 µM (OVCAR-4) | inhibition at 10 µM (BT-549) | inhibition at 10 µM (PC-3) | inhibition at 10 µM (MCF7) | inhibition at 10 µM (CAKI-1) | inhibition at 10 µM (SNB-75) | inhibition at 10 µM (UACC-62) | inhibition at 10 µM (MDA-MB-468) | inhibition at 10 µM (NCI/ADR-RES) | inhibition at 10 µM (COLO 205) | inhibition at 10 µM (EKVX) | inhibition at 10 µM (786-0) | inhibition at 10 µM (M14) | other results
Cc1ccccc1CNc1c2ccccc2nc2ccccc12 [Compound 2, Acridin-9-yl-(2-methylbenzyl)-amine] | 80.3% | 66.1% | 71.9% | 86.2% | 64.3% | 84.7% | 71% | 67.1% | 44.1% | 74.4% | 93.1% | 74.9% | 54.7% | 53.3% | 94.2% | 75.2% | 119% | 61.6% | 75.7% | 86.8% | inhibition at 10 µM (UACC-257): 67.3%; inhibition at 10 µM (U251): 78.7%; inhibition at 10 µM (NCI-H522): 50%; inhibition at 10 µM (HCT-116): 92.1%; inhibition at 10 µM (HOP-92): 101%; inhibition at 10 µM (T-47D): 75.5%; inhibition at 10 µM (SK-MEL-2): 59.9%; inhibition at 10 µM (NCI-H23): 76.6%; inhibition at 10 µM (MALME-3M): 84.8%; inhibition at 10 µM (SF-295): 70.5%; inhibition at 10 µM (ACHN): 88.4%; inhibition at 10 µM (SN12C): 75.7%; inhibition at 10 µM (HT29): 91.1%
Cc1cccc(CNc2c3ccccc3nc3ccccc23)c1 [Compound 3, Acridin-9-yl-(3-methylbenzyl)-amine] | 77.4% | 80.2% | 59.6% | 82.8% | 69.7% | 87.5% | 59.7% | 72.1% | 32.7% | 75.1% | 93.8% | 82.3% | 63% | 57.2% | 100% | 74.3% | 116% | 55.5% | 75.8% | 77.2% | inhibition at 10 µM (UACC-257): 63.8%; inhibition at 10 µM (U251): 76.3%; inhibition at 10 µM (NCI-H522): 47.9%; inhibition at 10 µM (HCT-116): 90.2%; inhibition at 10 µM (HOP-92): 93%; inhibition at 10 µM (T-47D): 74.7%; inhibition at 10 µM (SK-MEL-2): 62%; inhibition at 10 µM (NCI-H23): 70.3%; inhibition at 10 µM (MALME-3M): 85.9%; inhibition at 10 µM (SF-295): 74.7%; inhibition at 10 µM (ACHN): 84.2%; inhibition at 10 µM (SN12C): 73.9%; inhibition at 10 µM (HT29): 94.8%
Cc1ccc(CNc2c3ccccc3nc3ccccc23)cc1 [Compound 4, Acridin-9-yl-(4-methylbenzyl)-amine] | 74% | 69.9% | 56.4% | 79.8% | 61.5% | 74.5% | 60.2% | 75.5% | 28.7% | 75.7% | 91% | 81.4% | 58.3% | 56.6% | 92.8% | 73.9% | 99.7% | 62.1% | 74.6% | 72% | inhibition at 10 µM (UACC-257): 60.6%; inhibition at 10 µM (U251): 74%; inhibition at 10 µM (NCI-H522): 51%; inhibition at 10 µM (HCT-116): 88%; inhibition at 10 µM (HOP-92): 96.8%; inhibition at 10 µM (T-47D): 71.9%; inhibition at 10 µM (SK-MEL-2): 57.3%; inhibition at 10 µM (NCI-H23): 70.7%; inhibition at 10 µM (MALME-3M): 83.8%; inhibition at 10 µM (SF-295): 68.7%; inhibition at 10 µM (ACHN): 86%; inhibition at 10 µM (SN12C): 75.1%; inhibition at 10 µM (HT29): 89.7%
